# Measured values taken from PubChem BioAssay (NCI).
#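 Exposure lasted 48 hours, with cells grown in 96-well plates and compounds tested at five concentrations. Abbreviation: GI50, concentration required for 50% inhibition of growth. TGI is the concentration that stops growth completely.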
# Columns and labels:
# Assay in all cases: inhibition of tumour cell growth, NCI panel, 48 h
# [1] = test system: COLO 205 colon
# [2] = test system: HCT-116 colon
# [3] = test system: IGROV1 ovarian
# [4] = test system: NCI-H23 lung
# [5] = test system: NCI-H460 lung
# [6] = test system: SF-539 CNS
# [7] = test system: SK-MEL-5 melanoma
# [8] = test system: U251 CNS
# [9] = test system: ACHN renal
# [10] = test system: HL-60(TB) leukemia
SMILES,GI50 [1] [µM],TGI [1] [µM],GI50 [2] [µM],TGI [2] [µM],GI50 [3] [µM],TGI [3] [µM],GI50 [4] [µM],TGI [4] [µM],GI50 [5] [µM],TGI [5] [µM],GI50 [6] [µM],TGI [6] [µM],GI50 [7] [µM],TGI [7] [µM],GI50 [8] [µM],TGI [8] [µM],TGI [9] [µM],TGI [10] [µM],GI50 [9] [µM],GI50 [10] [µM]
N#Cc1c(N)nc(N2CCOCC2)c(C#N)c1-c1ccc(Cl)cc1Cl,16.6,40.6,22.1,54.7,6.64,23.6,19.7,48.4,9.38,25.3,17.9,42.1,14.7,29.2,17.4,42.4,,,,
COC(=O)CCSC(=O)Nc1ccccc1Cl,,> 100,,> 100,,,,> 100,,> 100,,> 100,,,,> 100,> 100,> 100,,
O=C(CO[N+](=O)[O-])OCC(=O)c1ccccc1,,> 100,,> 100,,> 100,,> 100,,> 100,,> 100,,,,> 100,> 100,> 100,,
CC(C)=NO.CC(C)=NO.CC(C)=NO.CC(C)=NO.[Ti],> 100,> 100,,,> 100,> 100,,,> 100,> 100,> 100,> 100,> 100,> 100,> 100,> 100,> 100,> 100,> 100,> 100
Oc1ccc(CCNc2nc3ccccc3c3[nH]c4ccccc4c23)cc1,,,1.22,2.89,,,1.96,4.27,,,1.73,3.19,1.75,3.15,,,2.52,5.41,1.27,2.4
CCOC(=O)C1C(=O)C(=O)N2CCc3c([nH]c4ccccc34)C12 (stereo not given),,> 100,,> 100,,> 100,,> 100,,,,> 100,,> 100,,> 100,,> 100,,
CC(=O)Nc1ccc(C(=O)NN2C(=O)CSC2c2ccccc2)cc1 (stereo not given),,> 100,,> 100,,> 100,,> 100,,> 100,,> 100,,> 100,,> 100,> 100,,,
CCNC(=O)O/N=C1/C=C2CC[C@@H]3C(CC[C@@]4(C)C3CC[C@@H]4OC(=O)NCC)[C@@]2(C)CC1 (stereo not given in full),,7.87,,12.2,,> 100,,10.8,,12.5,,> 100,,> 100,,5.28,11.6,,,
O=C(Nc1ccccc1)Oc1ccccc1C1CCCCC1,,30.6,,90.2,,> 100,,47.1,,60,,> 100,,26.9,,30.7,,35.2,,
COc1cccc2c(Nc3ccc(C(=O)NCCN4CCNCC4)cc3)cc(-c3ccccc3)nc12,19.7,56.1,30.9,> 100,32.1,> 100,> 100,> 100,35.1,> 100,22.9,57,31,> 100,34.8,> 100,40.8,,18.8,
CN(C)c1ccc(/C=C2\Cc3ccccc3C2=O)cc1Br,,> 100,,,,> 100,,> 100,,> 100,,,,76.6,,> 100,> 100,,,
CC1CC2C(=O)N(c3ccccc3)C(=O)C2c2[nH]c3ccccc3c21 (stereo not given),,> 100,,,,> 100,,> 100,,> 100,,> 100,,> 100,,> 100,> 100,> 100,,
O=[N+]([O-])C1(CO)COC(CCc2ccccc2)OC1 (stereo not given),,,,> 100,,> 100,,> 100,,> 100,,> 100,,> 100,,> 100,> 100,> 100,,
Cn1ncc2c(c1=O)Nc1ccccc1S2(=O)=O,,> 100,,> 100,,> 100,,> 100,,> 100,,49,,> 100,,> 100,> 100,,,
Cn1c(=O)c(-c2c(Cl)cccc2Cl)cc2cnc(Nc3ccc(N4CCOCC4)cc3)nc21,< 0.0125,0.477,< 0.01,0.148,,1.33,< 0.01,0.31,0.57,,< 0.0451,0.113,0.149,1.34,0.17,6.13,,0.216,,0.0137
CCOC(=O)Oc1ccc2[nH]c3c(C)cc(N)c(C)c3c2c1,,> 100,,> 100,,,,> 100,,> 100,,> 100,,> 100,,,> 100,> 100,,
CCOC(=O)/C(=C/c1ccc[nH]1)P(=O)(OCC)OCC,,> 100,,> 100,,,,> 100,,> 100,,> 100,,> 100,,> 100,> 100,> 100,,
Cc1cccc2c1Oc1ncccc1C2NC(=O)CN(C)C (stereo not given),,,,,,> 10,,> 10,,> 10,,> 10,,,,> 10,> 10,> 10,,
Cc1nc(-c2cccnc2)sc1C(=O)/C=C/c1ccc(Cl)cc1Cl,,> 100,,,,> 100,,> 100,,> 100,,> 100,,> 100,,> 100,> 100,> 100,,
O=C1C(=O)c2c(ccc3ccccc23)-c2ccccc21,2.24,6.55,0.384,2.87,,,1.76,4.63,1.6,3.08,1.89,4.07,1.5,2.82,1.67,3.56,> 100,5.85,2.74,2.83
